Measurements taken from ChEMBL document CHEMBL3044903, “Synthesis and Herbicidal Activity of Novel 3-Alkoxycarbonyl-3-aryl-2,3-dihydro-2-oxo-1H-pyrrole Derivatives” (J Pestic Sci, 2004).

Key:
Format in all cases: functional
[1] = test system: Schoenoplectiella juncoides; experiment: Pre-emergence herbicide activity against Schoenoplectiella juncoides under greenhouse condition at 1 g a.i/a measured after 3 weeks
Echinochloa oryzicola [2] = experiment: Post-emergence herbicide activity against Echinochloa oryzicola under greenhouse condition at 1 g a.i/a treated at one-leaf stage measured after 3 weeks
Echinochloa oryzicola [3] = experiment: Pre-emergence herbicide activity against Echinochloa oryzicola under greenhouse condition at 1 g a.i/a measured after 3 weeks
[4] = test system: Schoenoplectiella juncoides; experiment: Post-emergence herbicide activity against Schoenoplectiella juncoides under greenhouse condition at 10 g a.i/a treated at one-leaf stage measured after 3 weeks
[5] = test system: Schoenoplectiella juncoides; experiment: Post-emergence herbicide activity against Schoenoplectiella juncoides under greenhouse condition at 1 g a.i/a treated at one-leaf stage measured after 3 weeks
[6] = test system: Schoenoplectiella juncoides; experiment: Pre-emergence herbicide activity against Schoenoplectiella juncoides under greenhouse condition at 10 g a.i/a measured after 3 weeks
Echinochloa oryzicola [7] = experiment: Post-emergence herbicide activity against Echinochloa oryzicola under greenhouse condition at 10 g a.i/a treated at one-leaf stage measured after 3 weeks
Echinochloa oryzicola [8] = experiment: Pre-emergence herbicide activity against Echinochloa oryzicola under greenhouse condition at 10 g a.i/a measured after 3 weeks

Compound	Activity [1] [%]	Activity (Echinochloa oryzicola [2]) [%]	Activity (Echinochloa oryzicola [3]) [%]	Activity [4] [%]	Activity [5] [%]	Activity [6] [%]	Activity (Echinochloa oryzicola [7]) [%]	Activity (Echinochloa oryzicola [8]) [%]
COC(=O)C1(c2ccccc2)C(=O)N(C(C)(C)c2cc(F)cc(F)c2)C=C1C (stereo not drawn)	100	50.1	75.1	87.6	87.6	100	100	100
COC(=O)C1(c2ccccc2)C(=O)N(C(C)(C)c2ccc3ccccc3c2)C=C1C (stereo not drawn)	0	0.1	87.6	87.6	0	87.6	100	100
COC(=O)C1(c2ccccc2)C(=O)N(C(C)(C)c2cc(Cl)cc(Cl)c2)C=C1C(F)F (stereo not drawn)	0	0	0	50.1	0	87.6	87.6	100
COC(=O)C1(c2ccccc2)C(=O)N(C(C)(C)c2cccc(Cl)n2)C=C1C (stereo not drawn)	100	0	100	87.6	87.6	100	87.6	100
CC1=CN(C(C)(C)c2cc(Cl)cc(Cl)c2)C(=O)C1(C(=O)OCc1ccccc1)c1ccccc1 (stereo not drawn)	0	50.1	0	0	0	0	100	100
CCOC(=O)C1(c2ccccc2)C(=O)N(C(C)(C)c2cc(Cl)cc(Cl)c2)C=C1C (stereo not drawn)	75.1	87.6	100	75.1	0	100	100	100
COC(=O)C1(c2ccccc2)C(=O)N(C(C)(C)c2cnc3ccccc3c2)C=C1C (stereo not drawn)	50.1	0	100	87.6	0	100	100	100
COC(=O)C1(c2ccccc2)C(=O)N(C(C)(C)c2cc(Cl)cc(Cl)c2)C=C1/C=N/O (stereo not drawn)	0	0	0	0.1	0	75.1	0.1	100
COC(=O)C1(c2ccccc2)C(=O)N(C(C)(C)c2cc(Cl)cc(Cl)c2)C=C1C#N (stereo not drawn)	0	0	0	0.1	0	87.6	0	100
COC(=O)C1(c2ccccc2)C(=O)N(C(C)(C)c2cc(Cl)cc(Cl)c2)C=C1C=O (stereo not drawn)	50.1	0	100	87.6	50.1	100	87.6	100
COC(=O)C1(c2ccccc2)C(=O)N(C(C)(C)c2cc(Cl)cc(Cl)c2)C=C1COC(C)=O (stereo not drawn)	0	0.1	75.1	87.6	0.1	100	100	100
